# According to PubChem BioAssay AID250 (DTP/NCI, 2004):
# Several values for one entry are separate records, joined by “and”; a condition that tells them apart may be missing. Equal entries are not always repeated. Inconclusive results and toxic doses are left out.
# System: BDF1 mice, L1210 leukemia sc, survival T/C
# Experiment: NCI In Vivo Anticancer Drug Screen. Data for tumor model L1210 Leukemia (subcutaneous) in B6D2F1 (BDF1) mice
# Conditions: higher = longer survival
# Outline: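 Mice carrying transplanted tumors received test compounds, and survival or tumor size was measured. Values are the treated-group measurement (T) divided by that of the vehicle-treated control group (C).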
smiles,measurement,setting,value
S=c1nc[nH]c2nc[nH]c12,T/C,"endpoint: mean survival time, dose: 60.0 mg/kg/injection, schedule: Q01DX001 (ip), vehicle: saline",106 % of control
same,T/C,"endpoint: mean survival time, dose: 90.0 mg/kg/injection, schedule: Q01DX001 (ip), vehicle: saline",110 % of control
same,T/C,"endpoint: mean survival time, dose: 120.0 mg/kg/injection, schedule: Q01DX001 (ip), vehicle: saline",110 % of control
same,T/C,"endpoint: mean survival time, dose: 240.0 mg/kg/injection, schedule: Q01DX001 (ip), vehicle: saline",116 % of control
same,T/C,"endpoint: median survival time, dose: 0.65 mg/kg/injection, schedule: Q02DX Z (sc), vehicle: other",116 % of control
same,T/C,"endpoint: median survival time, dose: 5.0 mg/kg/injection, schedule: Q01DX009 (sc), vehicle: other",109 % of control
same,T/C,"endpoint: median survival time, dose: 5.0 mg/kg/injection, schedule: Q## X Z (sc), vehicle: other",105 % of control
same,T/C,"endpoint: median survival time, dose: 10.0 mg/kg/injection, schedule: Q01DX009 (sc), vehicle: other",113 % of control
same,T/C,"endpoint: median survival time, dose: 10.0 mg/kg/injection, schedule: Q01DX Z (sc), vehicle: methylcellulose (MC)",105 % of control
same,T/C,"endpoint: median survival time, dose: 12.5 mg/kg/injection, schedule: Q01DX012 (ip), vehicle: other",122 % of control
same,T/C,"endpoint: median survival time, dose: 14.0 mg/kg/injection, schedule: Q01DX Z (ip), vehicle: other",100 % of control
same,T/C,"endpoint: median survival time, dose: 14.0 mg/kg/injection, schedule: Q01DX Z (oral), vehicle: methylcellulose (MC)",100 % of control and 104 % of control
same,T/C,"endpoint: median survival time, dose: 14.0 mg/kg/injection, schedule: Q01DX Z (sc), vehicle: other",100 % of control (2×) and 110 % of control
same,T/C,"endpoint: median survival time, dose: 14.0 mg/kg/injection, schedule: Q#A X Z (sc), vehicle: other",105 % of control and 115 % of control
same,T/C,"endpoint: median survival time, dose: 17.0 mg/kg/injection, schedule: Q01DX Z (oral), vehicle: methylcellulose (MC)",95 % of control
same,T/C,"endpoint: median survival time, dose: 17.0 mg/kg/injection, schedule: Q01DX Z (sc), vehicle: methylcellulose (MC)",100 % of control and 110 % of control
same,T/C,"endpoint: median survival time, dose: 20.0 mg/kg/injection, schedule: Q01DX009 (sc), vehicle: other",124 % of control
same,T/C,"endpoint: median survival time, dose: 23.0 mg/kg/injection, schedule: Q01DX Z (ip), vehicle: other",100 % of control
same,T/C,"endpoint: median survival time, dose: 23.0 mg/kg/injection, schedule: Q01DX Z (oral), vehicle: methylcellulose (MC)",100 % of control
same,T/C,"endpoint: median survival time, dose: 23.0 mg/kg/injection, schedule: Q01DX Z (sc), vehicle: methylcellulose (MC)",109 % of control
same,T/C,"endpoint: median survival time, dose: 23.0 mg/kg/injection, schedule: Q02DX Z (sc), vehicle: other",94 % of control
same,T/C,"endpoint: median survival time, dose: 23.0 mg/kg/injection, schedule: Q#A X Z (sc), vehicle: other",105 % of control
same,T/C,"endpoint: median survival time, dose: 28.0 mg/kg/injection, schedule: Q01DX Z (oral), vehicle: methylcellulose (MC)",100 % of control
same,T/C,"endpoint: median survival time, dose: 28.0 mg/kg/injection, schedule: Q01DX Z (sc), vehicle: methylcellulose (MC)",109 % of control
same,T/C,"endpoint: median survival time, dose: 28.0 mg/kg/injection, schedule: Q01DX Z (sc), vehicle: other",110 % of control
same,T/C,"endpoint: median survival time, dose: 38.9 mg/kg/injection, schedule: Q01DX Z (sc), vehicle: methylcellulose (MC)",150 % of control
same,T/C,"endpoint: median survival time, dose: 38.9 mg/kg/injection, schedule: Q01DX Z (sc), vehicle: other",100 % of control and 105 % of control
same,T/C,"endpoint: median survival time, dose: 39.0 mg/kg/injection, schedule: Q01DX001 (sc), vehicle: other",105 % of control
same,T/C,"endpoint: median survival time, dose: 39.0 mg/kg/injection, schedule: Q01DX Z (ip), vehicle: other",110 % of control
same,T/C,"endpoint: median survival time, dose: 39.0 mg/kg/injection, schedule: Q01DX Z (oral), vehicle: methylcellulose (MC)",104 % of control
same,T/C,"endpoint: median survival time, dose: 39.0 mg/kg/injection, schedule: Q02DX Z (sc), vehicle: other",105 % of control
same,T/C,"endpoint: median survival time, dose: 39.0 mg/kg/injection, schedule: Q07DX Z (sc), vehicle: other",105 % of control
same,T/C,"endpoint: median survival time, dose: 39.0 mg/kg/injection, schedule: Q## X Z (sc), vehicle: other",100 % of control
same,T/C,"endpoint: median survival time, dose: 39.0 mg/kg/injection, schedule: Q#A X Z (sc), vehicle: other",110 % of control
same,T/C,"endpoint: median survival time, dose: 47.0 mg/kg/injection, schedule: Q01DX Z (oral), vehicle: methylcellulose (MC)",104 % of control
same,T/C,"endpoint: median survival time, dose: 47.0 mg/kg/injection, schedule: Q01DX Z (sc), vehicle: other",110 % of control
same,T/C,"endpoint: median survival time, dose: 50.0 mg/kg/injection, schedule: Q01DX012 (ip), vehicle: other",155 % of control
